Assay results from patent publication US11932636B2, “RAD51 inhibitors” (Cyteir Therapeutics, Inc., priority 2019, dated 2024).
pEC50: −log10 of the molar value.

test system: Daudi cells (AID positive); assay: Compound primary screening: cell death in AID positive Daudi cells (Cell-Titer Glo, Day 7); format: cell-based; conditions: Homo sapiens, 168 h; Daudi cells, AID positive; cell death on Day 7, Cell-Titer Glo; read-out: Cellular activity in AID + (Daudi)
Experimental: Example 149. Compound Primary Screening
AID expressing cells are dependent upon RAD51 for survival; inhibiting RAD51 in AID positive cells results in a cytotoxic effect.
A 96 well u-bottom plate was prepared by writing the experiment number, plate number, date and initials in the top right corner of the plate lid. With a sterile 300 ml reservoir, and 25 ml serological pipette, evaporation buffer media was pipetted into reservoir in 25 ml increments. Using the liquid handler, 150 ul of evaporation buffer media was pipetted from reservoir into rows A and H, and Columns 1 and 12 of the 96 well u-bottom plate. Cell cultures were counted to obtain the density of cells per ml, and the culture viability. The cell density information was used to obtain 1,000,000 cells from culture using a 5 mL serological pipette into an epi tube. The cell density information from the culture was used to calculate the number of cells and volume of media needed for the assay to seed 1250 cells in 130 ul of media per available culture well in the 96 well u-bottom plate. Rows B through F were used for cells (50 wells in total), with row G left for an empty media control. The calculation was overestimated by 10 mL to account for the dead volume in the 300 ml reservoir. Once the media volume was calculated, the appropriate volume of media was pipetted in 25 mL increments into the 250 mL bottle using a 25 mL serological pipette. The 250 ml bottle was capped tightly, and placed into a 37° C. water bath for 2 minutes. While the culture media was warming, 10 mL of fresh media was pipetted from the 500 mL culture media bottle into a sterile 25 mL reservoir. Using the Eppendorf multichannel pipette, 130 ul of media was pipetted from the 25 mL reservoir into row G of the 96 well u-bottom plate. Once the 250 mL bottle of media was warmed, the volume of culture needed was pipetted into the bottle, and mixed gently with a 25 mL serological pipette as to not create bubbles, and then the contents of the bottle were pipetted into a new 300 mL reservoir. Using the liquid handler, 130 ul of culture was pipetted from the 300 mL reservoir into rows B through F of the 96 well u-bottom plate. Once the culture was added, the plate was placed into a 37° C. incubator until the compound master plate was prepared for use.
Two 96 well u-bottom plates were prepared by writing the master plate name in the upper right corner of the plate lid. Labeling one DMSO master and the other Media Master. The compounds of interest were obtained from the laboratory freezer, and placed into a 25 well storage box with a lid, and set the box aside. The compounds were vortexed after thawing but before use. Using an automatic multichannel pipette, 20 ul of 100% DMSO was pipetted into wells B3-B11 through G3-G11 of the DMSO master plate. For each compound on the master plate, 50 ul of the compound were pipetted in the appropriate well of row 2 (reference plate map to determine appropriate well). A serial dilution was prepared beginning by aspirating 20 ul from row 2 and mixing with row 3, repeating until row 11 was reached. Using the liquid handler, 194 ul of Daudi media was dispensed into wells B2-B11 through G2-G11 of the Media master plate. Using the liquid handler, 6 ul from the DMSO master plate was aspirated and dispensed into the media master plate, mixing 100 ul twice.
Compounds from master plate were then added to the culture plate. The culture plates were removed from the incubator, and set inside the biosafety cabinet. Using a liquid handler, 20 ul from wells B2 to B11 through G2 to G11 of master plate were aspirated, and dispensed into wells B2 to B11 through G2 to G11 of culture plate. This set was continued with each culture plate. Once the culture plates acquired their 20 ul of compound dilutions, they were placed back into the incubator, until their reads on Day 7 of experiment.
Cell death was measured on Day 7 of the experiment using Cell-Titer Glo and a Promega Plate reader.

Structure (SMILES) | pEC50
CNCCOc1ccc(-c2cnc([C@H]3CC[C@H](NC(=O)OC(C)C)CC3)s2)c(S(=O)(=O)NC(C)(C)C)c1 [Compound 32, isopropyl (trans-4-(5-(2-(N-(tert-butyl)sulfamoyl)-4-(2-(methylamino)ethoxy)phenyl)thiazol-2-yl)cyclohexyl)carbamate] | < 5.00
CCNS(=O)(=O)c1cc(OCCC(C)C)ccc1-c1cnc([C@H]2CC[C@H](NC(=O)OC3COC3)CC2)s1 [Compound 100, oxetan-3-yl trans-N-[4-[5-[2-(ethylsulfamoyl)-4-isopentyloxy-phenyl]thiazol-2-yl]cyclohexyl]carbamate] | 6.00 to 7.00
CCNS(=O)(=O)c1cc(C(=O)OC)ccc1-c1cnc([C@H]2CC[C@H](NC(=O)OC(C)C)CC2)s1 [Compound 71, methyl trans-3-(ethylsulfamoyl)-4-[2-[4-(isopropoxycarbonyl-amino)cyclohexyl]thiazol-5-yl]benzoate] | 5.00 to 6.00
CC(C)OC(=O)N[C@H]1CC[C@H](c2ncc(-c3ccc(CC(=O)NCc4ccccc4)cc3S(=O)(=O)NC(C)(C)C)s2)CC1 [Compound 97, isopropyl trans-N-[4-[5-[4-[2-(benzylamino)-2-oxo-ethyl]-2-(tert-butylsulfamoyl)phenyl]thiazol-2-yl]cyclohexyl]carbamate] | > 7.00
CCNS(=O)(=O)c1cc(CNc2ncc[nH]2)ccc1-c1cnc([C@H]2CC[C@H](NC(=O)OC(C)C)CC2)s1 [Compound 73, isopropyl trans-N-[4-[5-[2-(ethylsulfamoyl)-4-[(1H-imidazol-2-ylamino)methyl]phenyl]thiazol-2-yl]cyclohexyl]carbamate] | 5.00 to 6.00
CCNS(=O)(=O)c1cc(Nc2ncco2)ccc1-c1cnc([C@H]2CC[C@H](NC(=O)OC(C)C)CC2)s1 [Compound 60, isopropyl (trans-4-(5-(2-(N-ethylsulfamoyl)-4-(oxazol-2-ylamino)phenyl)thiazol-2-yl)cyclohexyl)carbamate] | > 7.00
CCNS(=O)(=O)c1ccccc1-c1cnc([C@H]2CC[C@H](NC(=O)OC(C)C)CC2)s1 [Compound 45, isopropyl (trans-4-(5-(2-(N-ethylsulfamoyl)phenyl)thiazol-2-yl)cyclohexyl)carbamate] | 5.00 to 6.00
CCNS(=O)(=O)c1cc(C(N)=O)ccc1-c1cnc([C@H]2CC[C@H](NC(=O)OC(C)C)CC2)s1 [Compound 49, isopropyl trans-N-[4-[5-[4-carbamoyl-2-(ethylsulfamoyl)phenyl]thiazol-2-yl]cyclohexyl]carbamate] | 6.00 to 7.00
CCNS(=O)(=O)c1cc(Nc2ccc(=O)[nH]n2)ccc1-c1cnc([C@H]2CC[C@H](NC(=O)OC(C)C)CC2)s1 [Compound 160, isopropyl trans-N-[4-[5-[2-(ethylsulfamoyl)-4-[(6-oxo-1H-pyridazin-3-yl)amino]phenyl]thiazol-2-yl]cyclohexyl]carbamate] | 6.00 to 7.00
CNS(=O)(=O)c1ccccc1-c1cnc([C@H]2CC[C@H](NC(=O)OC(C)C)CC2)s1 [Compound 93, isopropyl trans-N-[4-[5-(2-methylsulfamoylphenyl)thiazol-2-yl]cyclohexyl]carbamate] | 5.00 to 6.00
CCNS(=O)(=O)c1cc(N2CCOCC2)ccc1-c1cnc([C@H]2CC[C@H](NC(=O)OC(C)C)CC2)s1 [Compound 134, isopropyl trans-N-[4-[5-[2-(ethylsulfamoyl)-4-[morpholino]phenyl]thiazol-2-yl]cyclohexyl]carbamate] | 6.00 to 7.00
CCNS(=O)(=O)c1cc(N(C)c2nccn2C)ccc1-c1cnc([C@H]2CC[C@H](NC(=O)OC(C)C)CC2)s1 [Compound 117, isopropyl trans-N-[4-[5-[2-(ethylsulfamoyl)-4-[methyl(1-methyl-1H-imidazol-2-yl)amino]phenyl]thiazol-2-yl]cyclohexyl]carbamate] | 6.00 to 7.00
CC(C)OC(=O)N[C@H]1CC[C@H](c2ncc(-c3ccc(-c4ccc5c[nH]nc5c4)cc3S(=O)(=O)NC(C)(C)C)s2)CC1 [Compound 9, isopropyl (trans-4-(5-(2-(N-(tert-butyl)sulfamoyl)-4-(2H-indazol-6-yl)phenyl)thiazol-2-yl)cyclohexyl)carbamate] | 5.00 to 6.00
CCNS(=O)(=O)c1cc(CC(=O)N2CCC2)ccc1-c1cnc([C@H]2CC[C@H](NC(=O)OC(C)C)CC2)s1 [Compound 87, isopropyl trans-N-[4-[5-[4-[2-oxo-2-(azetidin-1-yl)ethyl]-2-(ethyl-sulfamoyl)phenyl]thiazol-2-yl]cyclohexyl]carbamate] | 6.00 to 7.00
CCNS(=O)(=O)c1cc(N2CCS(=O)(=O)CC2)ccc1-c1cnc([C@H]2CC[C@H](NC(=O)OC(C)C)CC2)s1 [Compound 133, isopropyl trans-N-[4-[5-[2-(ethylsulfamoyl)-4-[1,1-dioxidothiomorpholino]phenyl]thiazol-2-yl]cyclohexyl]carbamate] | 5.00 to 6.00
CCNS(=O)(=O)c1cc(CC(=O)NC(C)C)ccc1-c1cnc(N2CCN(C(=O)OC3COC3)CC2)s1 [Compound 96, oxetan-3-yl 4-(5-(2-(N-ethylsulfamoyl)-4-(2-(isopropylamino)-2-oxoethyl)phenyl)thiazol-2-yl)piperazine-1-carboxylate] | < 5.00
CCNS(=O)(=O)c1cc(NC2CN(CC(C)C)C2)ccc1-c1cnc([C@H]2CC[C@H](NC(=O)OC(C)C)CC2)s1 [Compound 145, isopropyl trans-N-[4-[5-[2-(ethylsulfamoyl)-4-[(1-isobutyl-azetidin-3-yl)amino]phenyl]thiazol-2-yl]cyclohexyl]carbamate] | 6.00 to 7.00
CC(C)OC(=O)N[C@H]1CC[C@H](c2ncc(-c3ccc(-c4ccnc(C(F)(F)F)c4)cc3S(=O)(=O)NC(C)(C)C)s2)CC1 [Compound 22, isopropyl (trans-4-(5-(2-(N-(tert-butyl)sulfamoyl)-4-(2-(trifluoromethyl)pyridin-4-yl)phenyl)thiazol-2-yl)cyclohexyl)carbamate] | 5.00 to 6.00
CCNS(=O)(=O)c1cc(Nc2cccnn2)ccc1-c1cnc([C@H]2CC[C@H](NC(=O)OC(C)C)CC2)s1 [Compound 123, isopropyl trans-N-[4-[5-[2-(ethylsulfamoyl)-4-[(pyridazin-3-yl)amino]phenyl]thiazol-2-yl]cyclohexyl]carbamate] | > 7.00
CC(=O)NCc1ccc(-c2cnc([C@H]3CC[C@H](NC(=O)OC(C)C)CC3)s2)c(S(=O)(=O)NC(C)(C)C)c1 [Compound 2, isopropyl (trans-4-(5-(4-(acetamidomethyl)-2-(N-(tert-butyl)sulfamoyl)phenyl)thiazol-2-yl)cyclohexyl)carbamate] | < 5.00
CCNS(=O)(=O)c1cc(Nc2ccncn2)ccc1-c1cnc([C@H]2CC[C@H](NC(=O)OC(C)C)CC2)s1 [Compound 124, isopropyl trans-N-[4-[5-[2-(ethylsulfamoyl)-4-[(pyrimidin-4-yl)amino]phenyl]thiazol-2-yl]cyclohexyl]carbamate] | > 7.00
CC(C)NC(=O)Cc1ccc(-c2cnc([C@H]3CC[C@H](NC(=O)OC4COC4)CC3)s2)c(S(=O)(=O)NC(C)(C)C)c1 [Compound 41, oxetan-3-yl (trans-4-(5-(2-(N-(tert-butyl)sulfamoyl)-4-(2-(isopropylamino)-2-oxoethyl)phenyl)thiazol-2-yl)cyclohexyl)carbamate] | 6.00 to 7.00
CC(C)OC(=O)N[C@H]1CC[C@H](c2ncc(-c3ccc(OCCN)cc3S(=O)(=O)NC(C)(C)C)s2)CC1 [Compound 26, isopropyl (trans-4-(5-(4-(2-aminoethoxy)-2-(N-(tert-butyl)sulfamoyl)phenyl)thiazol-2-yl)cyclohexyl)carbamate] | 5.00 to 6.00
CC(C)OC(=O)N[C@H]1CC[C@H](c2ncc(-c3ccc(-c4cncnc4)cc3S(=O)(=O)NC(C)(C)C)s2)CC1 [Compound 12, isopropyl (trans-4-(5-(2-(N-(tert-butyl)sulfamoyl)-4-(pyrimidin-5-yl)phenyl)thiazol-2-yl)cyclohexyl)carbamate] | < 5.00
